Reference: patent US11932652B2, “Pyrrolidinyl urea derivatives and application thereof in TrkA-related diseases” (ZHANGZHOU PIEN TZE HUANG PHARMACEUTICAL CO., LTD., priority 2018, dated 2024)

Biological target: T1, CYP2C19 (Homo sapiens, UniProt P33261)
T1 construct: from tissue; host or cells: human liver microsomes
Assay: Cytochrome P450 isozyme inhibitory activity test, CYP2C19
Assay type: in vitro ADME
Details: heading: Cytochrome P450 isozyme IC50, CYP2C19; human liver microsome
Experimental: Determination of the inhibitory activity of the test compound on different human cytochrome P450 isozymes.
The test compound, standard inhibitor (100×final concentration), and a mixed substrate working solution were prepared; the microsome frozen in −80° C. refrigerator was thawed. 2 μL of the test compound and standard inhibitor solution was added to the corresponding wells, and at the same time 2 μL of the corresponding solvent was added to the non-inhibitor control wells (NIC) and blank control wells (Blank) wells; then 20 μL of mixed substrate solution was added to the corresponding wells, except for the Blank wells (20 μL of PB was added to the Blank wells); a human liver microsome solution was prepared (put back into the refrigerator immediately after using and marking the date), and then 158 μL of the human liver microsome solution was added to all wells; the above sample plate was placed in a 37° C. water bath for pre-incubation, then the coenzyme factor (NADPH) solution was prepared; 10 minutes later, 20 μL of the NADPH solution was added to all wells, and the sample plate was shaken well, placed in a 37° C. water bath and incubated for 10 minutes; at the corresponding time point, 400 μL of cold acetonitrile solution (internal standard: 200 ng/mL tolbutamide and labetalol) was added to terminate the reaction; the sample plate was evenly mixed, centrifuged at 4000 rpm for 20 minutes to precipitate proteins; 200 μL of the supernatant was added to 100 μL of water, shook well, and tested by LC/MS/MS.

T1 sequence (P33261 whole entry): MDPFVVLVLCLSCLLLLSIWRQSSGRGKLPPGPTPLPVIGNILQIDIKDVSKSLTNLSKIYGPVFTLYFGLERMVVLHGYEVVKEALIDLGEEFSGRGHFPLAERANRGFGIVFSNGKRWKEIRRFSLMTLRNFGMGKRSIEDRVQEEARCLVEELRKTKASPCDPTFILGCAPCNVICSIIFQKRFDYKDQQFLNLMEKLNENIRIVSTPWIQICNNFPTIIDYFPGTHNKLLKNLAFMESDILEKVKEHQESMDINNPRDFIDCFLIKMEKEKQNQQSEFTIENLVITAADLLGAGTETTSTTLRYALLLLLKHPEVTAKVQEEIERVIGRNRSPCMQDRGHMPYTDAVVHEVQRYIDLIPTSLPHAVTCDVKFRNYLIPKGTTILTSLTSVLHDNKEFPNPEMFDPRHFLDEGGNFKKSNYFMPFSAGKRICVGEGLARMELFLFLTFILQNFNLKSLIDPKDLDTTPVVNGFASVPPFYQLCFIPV

COCCN1C[C@@H](n2ccc(F)c2)[C@H](NC(=O)Nc2c(C)c(-c3cnc(C4(F)COC4)nc3)nn2-c2ccccc2)C1 [Compound 7]
IC50: > 50 µM
